According to patent publication US11840686B2, “Modulation of prekallikrein (PKK) expression” (Ionis Pharmaceuticals, Inc., priority 2013, dated 2023):
Strand notation (5' to 3'): a small letter for the sugar, then the base; units joined by * are phosphorothioate-linked, units joined directly phosphodiester-linked; [ ] holds rarer units or linkages, { } end groups; capitals alone tell only the bases. e = 2'-O-(2-methoxyethyl) (MOE); k = constrained ethyl (cEt); [5mC] = 5-methylcytosine; d = 2'-deoxy (DNA)

Test system: human PKK mRNA
Test: Antisense inhibition of human PKK mRNA in HepaRG cells, 1,000 nM, MOE/deoxy/cEt oligonucleotides (Example 3)
Format: cell-based
Settings: HepaRG cells, 1,000 nM antisense oligonucleotide
In short: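 HepaRG cells at 20,000 per well electroporated with 1,000 nM 16-mer MOE/cEt/deoxy gapmers (phosphorothioate, 5-methylcytosine). After about 24 h, PKK mRNA measured by qRT-PCR with primer probe set RTS3454, normalized to RIBOGREEN total RNA. Reported as percent inhibition versus untreated cells.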

Substance: 548604 (eG*eT*kG*dG*dT*dG*dG*dG*dA*dT*dT*dG*dG*kT*kG*e[5mC]; antisense) [compound 548604]
- % inhibition (Table 29): 22%

Substance: 548605 (eT*eG*kG*d[5mC]*dG*dG*dG*dA*dT*dT*dG*dG*dT*kG*kG*eT; antisense) [compound 548605]
- % inhibition (Table 29): 12%

Substance: 548606 (e[5mC]*eG*kG*dT*dG*dG*dT*dG*dG*dG*dA*dT*dT*kG*kG*eT; antisense) [compound 548606]
- % inhibition (Table 29): 41%

Substance: 548607 (eT*e[5mC]*kG*dG*dT*dG*dG*dT*dG*dG*dG*dA*dT*kT*kG*eG; antisense) [compound 548607]
- % inhibition (Table 29): 34%

Substance: 548608 (antisense eA*eT*k[5mC]*dG*dG*dT*dG*dG*dT*dG*dG*dG*dA*kT*kT*eG) [compound 548608]
- % inhibition (Table 29): 25%

Substance: 548609 (antisense eG*eA*kT*d[5mC]*dG*dG*dT*dG*dG*dT*dG*dG*dG*kA*kT*eT) [compound 548609]
- % inhibition (Table 29): 30%

Substance: 548610 (antisense eG*eG*kA*dT*d[5mC]*dG*dG*dT*dG*dG*dT*dG*dG*kG*kA*eT) [compound 548610]
- % inhibition (Table 29): 2%

Substance: 548611 (antisense eG*e[5mC]*kG*dG*dG*dA*dT*d[5mC]*dG*dG*dT*dG*dG*kT*kG*eG) [compound 548611]
- % inhibition (Table 29): 7%

Substance: 548612 (antisense eG*eG*k[5mC]*dG*dG*dG*dA*dT*d[5mC]*dG*dG*dT*dG*kG*kT*eG) [compound 548612]
- % inhibition (Table 29): 20%

Substance: 548613 (antisense eT*eG*kG*d[5mC]*dG*dG*dG*dA*dT*d[5mC]*dG*dG*dT*kG*kG*eT) [compound 548613]
- % inhibition (PKK mRNA, Table 31): 39%

Substance: 548614 (antisense eT*eG*kG*dT*dG*dG*d[5mC]*dG*dG*dG*dA*dT*d[5mC]*kG*kG*eT) [compound 548614]
- % inhibition (PKK mRNA, Table 31): 0%

Substance: 548615 (antisense eT*eT*kG*dG*dT*dG*dG*d[5mC]*dG*dG*dG*dA*dT*k[5mC]*kG*eG) [compound 548615]
- % inhibition (PKK mRNA, Table 31): 10%

Substance: 548616 (antisense eA*eT*kT*dG*dG*dT*dG*dG*d[5mC]*dG*dG*dG*dA*kT*k[5mC]*eG) [compound 548616]
- % inhibition (PKK mRNA, Table 31): 35%

Substance: 548617 (antisense eG*eA*kT*dT*dG*dG*dT*dG*dG*d[5mC]*dG*dG*dG*kA*kT*e[5mC]) [compound 548617]
- % inhibition (PKK mRNA, Table 31): 44%

Substance: 548618 (antisense eG*eT*kT*dG*dG*dT*dG*dG*d[5mC]*dG*dG*dG*dA*kT*k[5mC]*eG) [compound 548618]
- % inhibition (PKK mRNA, Table 31): 18%

Substance: 548619 (antisense eG*eG*kT*dT*dG*dG*dT*dG*dG*d[5mC]*dG*dG*dG*kA*kT*e[5mC]) [compound 548619]
- % inhibition (PKK mRNA, Table 31): 19%

Substance: 548620 (antisense eT*eG*kG*dT*dT*dG*dG*dT*dG*dG*d[5mC]*dG*dG*kG*kA*eT) [compound 548620]
- % inhibition (PKK mRNA, Table 31): 24%

Substance: 548621 (antisense eG*eA*kA*d[5mC]*dA*d[5mC]*dA*dT*d[5mC]*dA*dG*dG*dG*kA*kT*eT) [compound 548621]
- % inhibition (PKK mRNA, Table 31): 33%

Substance: 548622 (antisense eT*eT*kT*d[5mC]*dT*dA*dT*dG*dG*dG*d[5mC]*d[5mC]*dT*kG*kA*e[5mC]) [compound 548622]
- % inhibition (PKK mRNA, Table 31): 0%

Substance: 548623 (antisense eG*e[5mC]*kT*dG*dT*d[5mC]*dA*d[5mC]*dT*dT*dA*dA*dG*k[5mC]*k[5mC]*eA) [compound 548623]
- % inhibition (PKK mRNA, Table 31): 16%

Substance: 548624 (antisense eT*e[5mC]*kT*dA*dG*dG*dG*d[5mC]*d[5mC]*dA*d[5mC]*dA*d[5mC]*k[5mC]*kT*e[5mC]) [compound 548624]
- % inhibition (PKK mRNA, Table 31): 24%

Substance: 548625 (antisense eG*eT*kT*d[5mC]*dT*dA*d[5mC]*dA*d[5mC]*dA*d[5mC]*dA*dG*kT*kA*e[5mC]) [compound 548625]
- % inhibition (PKK mRNA, Table 31): 0%

Substance: 548626 (antisense eG*e[5mC]*kA*dG*dT*dA*dT*dG*dT*dT*d[5mC]*dA*dA*kT*k[5mC]*e[5mC]) [compound 548626]
- % inhibition (PKK mRNA, Table 31): 36%

Substance: 548627 (antisense e[5mC]*e[5mC]*k[5mC]*dA*d[5mC]*dA*dT*dG*dT*dA*d[5mC]*d[5mC]*dA*k[5mC]*k[5mC]*eG) [compound 548627]
- % inhibition (PKK mRNA, Table 31): 22%

Substance: 548628 (antisense eG*eT*kA*dT*dG*dG*d[5mC]*dA*dG*dA*dG*d[5mC]*d[5mC]*k[5mC]*k[5mC]*eT) [compound 548628]
- % inhibition (PKK mRNA, Table 31): 9%

Substance: 548629 (antisense e[5mC]*e[5mC]*k[5mC]*dA*dT*d[5mC]*dT*dT*dG*dG*dG*dA*d[5mC]*kT*kT*eT) [compound 548629]
- % inhibition (PKK mRNA, Table 31): 44%

Substance: 548630 (antisense eT*eG*kG*dT*d[5mC]*d[5mC]*d[5mC]*dA*dA*dA*dT*dT*dG*kG*kA*eG) [compound 548630]
- % inhibition (PKK mRNA, Table 31): 33%

Substance: 548631 (antisense e[5mC]*eT*k[5mC]*dA*d[5mC]*dA*dA*dT*dA*d[5mC]*dT*dG*dA*kG*k[5mC]*e[5mC]) [compound 548631]
- % inhibition (PKK mRNA, Table 31): 55%

Substance: 548632 (antisense eG*eG*kA*dG*dA*dT*dA*dT*d[5mC]*dA*dG*dG*dT*kG*k[5mC]*eA) [compound 548632]
- % inhibition (PKK mRNA, Table 31): 45%

Substance: 548633 (antisense e[5mC]*eA*kA*dG*dG*d[5mC]*dA*dT*dG*dT*dG*dT*dG*k[5mC]*kA*e[5mC]) [compound 548633]
- % inhibition (PKK mRNA, Table 31): 41%

Substance: 548634 (antisense eG*e[5mC]*k[5mC]*dT*dT*dA*dT*dT*d[5mC]*dT*dG*dT*dG*k[5mC]*kA*eA) [compound 548634]
- % inhibition (PKK mRNA, Table 31): 0%

Substance: 548635 (antisense eA*eG*kG*dT*dG*dT*dG*dG*d[5mC]*dG*d[5mC]*dG*d[5mC]*kG*k[5mC]*e[5mC]) [compound 548635]
- % inhibition (PKK mRNA, Table 31): 18%

Substance: 548636 (antisense e[5mC]*eT*k[5mC]*dT*dA*dT*dA*d[5mC]*dA*dG*d[5mC]*dT*dG*kG*kG*e[5mC]) [compound 548636]
- % inhibition (PKK mRNA, Table 31): 5%

Substance: 548637 (antisense eG*e[5mC]*kT*dG*dA*dT*d[5mC]*dT*dT*d[5mC]*dT*dA*dA*kT*kG*e[5mC]) [compound 548637]
- % inhibition (PKK mRNA, Table 31): 38%

Substance: 548638 (antisense e[5mC]*e[5mC]*kT*d[5mC]*dA*dT*dT*dG*d[5mC]*dT*d[5mC]*d[5mC]*dA*k[5mC]*kT*eA) [compound 548638]
- % inhibition (PKK mRNA, Table 31): 26%

Substance: 548639 (antisense eT*eG*kG*dG*dA*dA*dG*dA*dA*dA*d[5mC]*dT*dA*kG*k[5mC]*eA) [compound 548639]
- % inhibition (PKK mRNA, Table 31): 10%

Substance: 548640 (antisense eG*eA*kA*dT*dG*dT*dT*dG*d[5mC]*dT*dG*dT*d[5mC]*k[5mC]*k[5mC]*eA) [compound 548640]
- % inhibition (PKK mRNA, Table 31): 32%

Substance: 548641 (antisense eG*e[5mC]*kA*dT*d[5mC]*dA*dT*dG*d[5mC]*dT*dT*dA*d[5mC]*kT*kG*e[5mC]) [compound 548641]
- % inhibition (PKK mRNA, Table 31): 23%

Substance: 548642 (antisense eG*e[5mC]*kG*dG*d[5mC]*dA*dG*dT*dA*dG*dT*dG*dA*kA*kT*e[5mC]) [compound 548642]
- % inhibition (PKK mRNA, Table 31): 23%

Substance: 548643 (antisense e[5mC]*e[5mC]*kT*dA*d[5mC]*d[5mC]*dT*dA*dA*dT*dT*d[5mC]*d[5mC]*kT*k[5mC]*e[5mC]) [compound 548643]
- % inhibition (PKK mRNA, Table 31): 0%

Substance: 548644 (antisense eA*eA*k[5mC]*dT*dG*dG*dG*d[5mC]*dA*dG*dT*d[5mC]*d[5mC]*kT*kT*e[5mC]) [compound 548644]
- % inhibition (PKK mRNA, Table 31): 14%

Substance: 548645 (antisense e[5mC]*e[5mC]*kA*dG*d[5mC]*dG*d[5mC]*dA*dA*dT*dT*d[5mC]*dT*kG*k[5mC]*eT) [compound 548645]
- % inhibition (PKK mRNA, Table 31): 8%

Substance: 548646 (antisense e[5mC]*eG*kT*dT*dT*d[5mC]*d[5mC]*d[5mC]*dT*d[5mC]*dA*dA*d[5mC]*kT*k[5mC]*e[5mC]) [compound 548646]
- % inhibition (PKK mRNA, Table 31): 24%

Substance: 548647 (antisense e[5mC]*eA*k[5mC]*dG*dG*d[5mC]*dA*dA*dG*dT*d[5mC]*dG*d[5mC]*kG*kG*eG) [compound 548647]
- % inhibition (PKK mRNA, Table 31): 39%

Substance: 548648 (antisense e[5mC]*eA*kG*dT*dT*dG*dT*dA*dT*d[5mC]*d[5mC]*d[5mC]*dT*k[5mC]*k[5mC]*e[5mC]) [compound 548648]
- % inhibition (PKK mRNA, Table 31): 32%

Substance: 548649 (antisense eG*e[5mC]*k[5mC]*dT*d[5mC]*dT*d[5mC]*dA*dG*dA*d[5mC]*dG*dG*k[5mC]*kA*e[5mC]) [compound 548649]
- % inhibition (PKK mRNA, Table 31): 0%

Substance: 548650 (antisense e[5mC]*eT*kG*dA*dT*d[5mC]*d[5mC]*d[5mC]*dA*d[5mC]*dT*dT*dG*k[5mC]*k[5mC]*e[5mC]) [compound 548650]
- % inhibition (PKK mRNA, Table 31): 21%

Substance: 548651 (antisense eA*eG*kT*d[5mC]*dT*d[5mC]*dT*dT*dT*d[5mC]*d[5mC]*dT*dA*k[5mC]*k[5mC]*e[5mC]) [compound 548651]
- % inhibition (PKK mRNA, Table 31): 61%

Substance: 548652 (antisense e[5mC]*e[5mC]*kA*d[5mC]*dG*dA*dT*dG*d[5mC]*dT*d[5mC]*dT*dG*kG*k[5mC]*e[5mC]) [compound 548652]
- % inhibition (PKK mRNA, Table 31): 65%

Substance: 548653 (antisense eT*e[5mC]*kG*dG*d[5mC]*dT*d[5mC]*d[5mC]*dT*dG*dG*d[5mC]*dA*kG*k[5mC]*eA) [compound 548653]
- % inhibition (PKK mRNA, Table 31): 46%

Substance: 548654 (antisense eA*e[5mC]*k[5mC]*dA*dT*dT*d[5mC]*d[5mC]*dT*dG*dA*d[5mC]*d[5mC]*kA*kT*eG) [compound 548654]
- % inhibition (PKK mRNA, Table 31): 34%

Substance: 548656 (antisense eT*eT*kA*d[5mC]*dA*dA*d[5mC]*dA*dG*dA*d[5mC]*d[5mC]*d[5mC]*kA*kG*eG) [compound 548656]
- % inhibition (PKK mRNA, Table 31): 35%

Substance: 548657 (antisense eA*eG*k[5mC]*dA*dG*dG*dG*dT*dA*dT*d[5mC]*dT*dT*k[5mC]*kA*e[5mC]) [compound 548657]
- % inhibition (PKK mRNA, Table 31): 26%

Substance: 548658 (antisense eG*eA*kA*dG*dT*dT*d[5mC]*d[5mC]*dT*dG*dT*dG*dT*k[5mC]*kT*eT) [compound 548658]
- % inhibition (PKK mRNA, Table 31): 11%

Substance: 548659 (antisense e[5mC]*e[5mC]*kA*dA*d[5mC]*d[5mC]*dT*d[5mC]*dT*dA*dA*dG*dG*k[5mC]*kT*eA) [compound 548659]
- % inhibition (PKK mRNA, Table 31): 17%
